Data reported in PubChem BioAssay (NCI).
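Five compound concentrations were applied to cells in 96-well plates for 48 hours; endpoints were derived by simple linear interpolation of the resulting dose-response curve. Abbreviation: GI50, concentration required for 50% inhibition of growth. TGI: total growth inhibition.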

Tests used:
Test in all cases: DTP human tumour cell line panel, 48 h
[1] = test system: SK-MEL-5 melanoma
[2] = test system: MALME-3M melanoma
[3] = test system: MDA-MB-231 breast
[4] = test system: SF-268 CNS
[5] = test system: HOP-92 NSCLC
[6] = test system: U251 CNS
[7] = test system: SK-MEL-28 melanoma
[8] = test system: IGROV1 ovarian
[9] = test system: HCT-116 colon
[10] = test system: MOLT-4 leukemia
[11] = test system: 786-0 renal
[12] = test system: SN12C renal
[13] = test system: SK-OV-3 ovarian

Structure (SMILES) | TGI [1] [µM] | TGI [2] [µM] | TGI [3] [µM] | TGI [4] [µM] | TGI [5] [µM] | TGI [6] [µM] | TGI [7] [µM] | TGI [8] [µM] | TGI [9] [µM] | TGI [10] [µM] | TGI [11] [µM] | TGI [12] [µM] | TGI [13] [µM] | GI50 [4] [µM] | GI50 [5] [µM] | GI50 [6] [µM] | GI50 [8] [µM] | GI50 [10] [µM] | GI50 [2] [µM]
CSC1(C)C(=O)Nc2c(OCc3ccccc3)cc([N+](=O)[O-])cc21 (centres undefined) | > 100 | > 100 | > 100 | > 100 | > 100 | 37.3 | > 100 | > 100 | > 100 | > 100 | 31 | 34.6 | > 100 | – | – | – | – | – | –
CN(CC(=O)O)c1ncc2c(n1)C=CCC2 | > 100 | > 100 | > 100 | > 100 | > 100 | > 100 | > 100 | > 100 | > 100 | > 100 | > 100 | > 100 | > 100 | – | – | – | – | – | –
COc1cc(C)c(/C=C2/N=C(c3ccccc3)OC2=O)c([N+](=O)[O-])c1OC | – | > 100 | > 100 | > 100 | > 100 | > 100 | > 100 | > 100 | > 100 | > 100 | > 100 | > 100 | > 100 | – | – | – | – | – | –
COc1cc2c(c(OC)c1OC)C(=O)[C@@H]1[C@H]2N1C(=O)NCCCl | > 100 | > 100 | > 100 | > 100 | > 100 | > 100 | > 100 | > 100 | > 100 | > 100 | > 100 | > 100 | > 100 | – | – | – | – | – | –
COc1ccc(/C(C)=N/NC(=O)c2ccncc2)c(OC)c1 | > 10 | > 10 | > 10 | > 10 | > 10 | > 10 | > 10 | > 10 | – | > 10 | > 10 | > 10 | > 10 | – | – | – | – | – | –
COc1ccc(/C=C/C(=O)/C=C/c2ccc(OC)cc2OC)c(OC)c1 | 16.9 | 26.9 | 78.5 | 33.7 | 67.5 | 23.4 | 22.5 | 36.1 | 21.3 | 40 | 29 | 65.2 | 37.7 | – | – | – | – | – | –
CC(=O)c1[nH]c(NC(C)C)c(C(=S)Nc2ccccc2)c1N | 42.2 | 89.2 | 66.3 | 65.9 | 92.4 | – | 87.7 | > 100 | 64.4 | > 100 | 61.8 | 75.1 | > 100 | – | – | – | – | – | –
CN(C)c1ccc(/C=C/c2ccc(S(N)(=O)=O)cc2)cc1 | 25.8 | 37.6 | 34.3 | > 100 | 36 | 31.7 | 28 | 33.4 | 67.2 | > 100 | 35.4 | 51.1 | 31.4 | 7.16 | 16.6 | 11.2 | 13.4 | > 100 | –
CC(O)C1(CNc2cc(Cl)nc(N)n2)CCCCC1 (centres undefined) | > 100 | > 100 | > 100 | > 100 | > 100 | > 100 | > 100 | > 100 | > 100 | > 100 | > 100 | > 100 | > 100 | – | – | – | – | – | –
CCOC(=O)/C=C(\C(=O)OCC)n1ccc(=O)n(Cc2cnnn2CCCCOC(C)=O)c1=O | 30.2 | 3.84 | 38.1 | 34.1 | 5.63 | > 59.3 | 21.4 | 28.4 | > 45.3 | 5.19 | > 37.5 | 45.3 | > 75.7 | – | – | – | – | 2.23 | –
COc1cc(CSc2ccc(O)cc2)cc(OC)c1OC | 34.9 | > 100 | > 100 | > 100 | 71.3 | > 100 | > 100 | > 100 | > 100 | > 100 | > 100 | > 100 | > 100 | – | – | – | – | – | –
CSC1NC(c2ccccc2)=C(C#N)C(=O)N1C1OCC(OC(C)=O)C(OC(C)=O)C1OC(C)=O (centres undefined) | > 100 | > 100 | > 100 | > 100 | > 100 | > 100 | > 100 | > 100 | > 100 | > 100 | > 100 | > 100 | > 100 | – | – | – | – | – | –
CC1(C)[C@@H]2C[C@H]1[C@@H](Cc1cccc(C[C@H]3c4cc(-c5ccccn5)ncc4[C@H]4C[C@@H]3C4(C)C)c1)c1cc(-c3ccccn3)ncc12 | > 38 | 8.14 | > 100 | > 100 | 83.4 | > 100 | > 100 | > 53.3 | > 47.6 | > 100 | > 47.6 | > 29.9 | > 100 | – | – | – | – | – | 1.78
CCOC(=O)NN(C(=O)OCC)C(C(=O)C1=CCCCC1)N(NC(=O)OCC)C(=O)OCC | > 100 | > 100 | > 100 | > 100 | > 100 | > 100 | > 100 | > 100 | > 100 | > 100 | > 100 | > 100 | > 100 | – | – | – | – | – | –
O=C(CN(C(=O)OC12CC3CC(CC(C3)C1)C2)C(=O)OC12CC3CC(CC(C3)C1)C2)Oc1ccc([N+](=O)[O-])cc1 | > 100 | > 100 | > 100 | > 100 | > 100 | > 100 | > 100 | > 100 | > 100 | > 100 | > 100 | > 100 | > 100 | – | – | – | – | – | –
CCCCCCCCCCCC(=O)OC[C@H](C[As](=O)(O)O)OC(=O)CCCCCCCCCCC | 4.54 | 7.14 | 16.3 | > 42.5 | 3.85 | 5.15 | 11.9 | 4.07 | 21.7 | > 81.4 | 26 | 16.4 | 28.9 | – | – | – | – | – | –
COC(=O)C1CCN(C(=O)OC(C)(C)C)CC1 | > 100 | > 100 | > 100 | > 100 | > 100 | > 100 | > 100 | > 100 | > 100 | > 100 | > 100 | > 100 | – | – | – | – | – | – | –
